Reference: US20260008793A1, “IONIZABLE CATIONIC LIPIDS INCORPORATING SILICON” (ALDEXCHEM KFT., priority 2022, published 2026)

What was measured:
HeLa cells = experiment: Transfection efficiency with Luciferase-mRNA, Nano-Glo assay (Method A); assay type: cell-based; settings: 100 ng Luciferase (SecNLuc) mRNA, 24 h, luminescence
Procedure: (§1) The synthesized lipids were tested in term of in vitro transfection efficacy and toxicity on HeLa cells. In order to perform the mentioned biological tests, appropriate LNPs had to be formulated from the synthesized lipids. The formulation technique was different in Method A and B. The particle size, PDI and zeta potential of resulting LNPs were determined by means of Dynamic Light Scattering technique (DLS). Prior to biological testing the encapsulation efficiency (EE) of the loaded LNPs was determined by using RiboGreen RNA assay. In case of Method A Luciferase-mRNA while in case of Method B GFP-mRNA was transfected into the cells. In parallel with the transfection experiments, toxicity of the investigated LNPs was determined, in case of Method A resazurin assay while in case of Method B MTT assay was used. In the case of some lipids, the apparent pKa in LNPs was determined by using TNS titration based on the method described: Angew Chem Int Ed Engl. 2012, 51 (34), 8529-8533, doi: 10.1002/anie.201203263).
• 1. Prepare mRNA solution by adding 100 ng mRNA (SecNLuc, #P009024, RiboPro) to 5 μl Opti-MEM • a. multiply by number of wells, include different concentrations and add 10% extra • b. a standard set-up we use is 100 ng-50 ng-10 ng mRNA/well in triplicate, which would need 528 ng mRNA (includes 10% extra)
• 2. (If applicable) Prepare different concentrations in Opti-MEM (for instance 100/50/10 ng). • 3. Add 10 μl to each well and mix carefully by pipetting. • 4. Mix by swirling the plate horizontally at modest speed. Reverse in direction 3 times. • 5. Incubate for 24 hours (incubator).
This protocol is applied to measure luciferase activity for secreted NanoLuc and is based on the protocol by Promega (Nano-Glo® Luciferase Assay System #N1110-1150). The protocol is designed for a 384-wells plate, but volumes can be changed accordingly for other plates.
• 1. Plate cells (HeLa) in 96-well plate, grow until 80% confluent and transfect with SecNanoLuc mRNA and incubate for the desired period (24 h). • 2. After incubation, the translated protein is accumulated in the medium. Transfer medium to a new plate or tubes • 3. Transfer 12 μl of each sample to a black-walled, clear-bottom 384-well plate • a. Black-walled plates are important to prevent shine-through of luminescence from other wells; alternatively, multiple wells between samples can be left empty • 4. Set-up plate reader • 5. Prepare the desired amount of Nano-Glo® Luciferase Assay Reagent by combining one volume of Nano-Glo® Luciferase Assay Substrate with 50 volumes of Nano-Glo® Luciferase Assay Buffer • a. composition: 100 mM MES pH 6; 1 mM EDTA; 0.5% NP-50; 150 mM KCl; 1 mM DTT; 35 mM Thiourea • b. Briefly spin tubes containing substrate in a microcentrifuge before use • 6. Add and mix (by pipetting) 12 μl Nano-Glo® Luciferase Assay Reagent per well • a. Wait approximately 3 minutes before measuring luminescence. […] Measure luminescence in plate reader using standard protocol luciferase (this includes mixing sample in plate reader)

[1] = LNP size, PDI and zeta potential by Dynamic Light Scattering (Method A); assay type: physicochemical; settings: LNP formulated by Method A; for Zeta potential (mV): 1xPBS pH 7.4; for PDI / Size (nm): DLS; for Size (nm): Luciferase-mRNA loaded
Procedure: as §1
• 1. If needed, prepare stock solutions by solving known amounts of lipid powder into an appropriate solvent. The recommended solvent is Ethanol and the recommended concentration is typically in the range 10-50 mM. Higher concentrations are preferred to allow flexibility on mRNA-LNP concentration. • 2. Remove the lipid stock solutions from the −20° C. freezer. For long-term storage, −80° C. is used. • 3. Check the vials for precipitation, DOPE (CAS #4004-05-1) (20 mM) and DSPE-PEG (CAS #474922-26-4) (5 mM) may need a 5-30 minute incubation step at 37° C. with intermittent vortexing to resuspend all contents. […] As a last resort, lipids may be heated to 50° C. to resuspend, time should be kept as short as possible to prevent oxidation or other modifying or degradative processes. • 4. Mix the lipids by vortexing for 2 minutes. • 5. […] Cooling the solution prevent excessive evaporation of ethanol or similar solvents upon opening. • 6. Meanwhile, thaw the RNA samples, including the latest SecNLuc control, by inserting the frozen tube in a room temperature aluminium block. • 7. Prepare for each LNP-formulation with identical mRNA component, an RNA master mix according to Table 1 below in a fresh tube. Use of a master mix allows more precise comparison of lipid formulations relative to each other. Split the master mix over a number of fresh tubes equal to the number of samples+controls. Each tube contains 375 μl of mRNA in 10 mM Citrate pH 4.0. • 8. Prepare for each LNP formulation with identical lipid composition a Lipid master mix according to Table 1 below in a fresh tube, exclude the lipid of interest. Use of a master mix allows more precise comparison of the novel ionizable lipid relative to each other. Split the master mix over a number of fresh tubes equal to the number of samples+controls. Each tube contains 65.5 μl of lipid master mix. • 9. Add the ionizable lipid of interest to the equally divide lipid master mix. Mix well by pipetting up and down. Label the tube according to the ionizable lipid used. • 10. Power on the ‘L 1 formulation machine’ (L 1 FM) and allow it to do a calibration of motor positions.
• 18. Fill a fresh syringe (C) through a blunt 18 G stainless steel needle with the previously prepared RNA mixture of step 6. The volume should be approximately […] of total formulation volume+25 μl (dead-volume). Make sure to remove all air bubbles by tapping. • 19. Fill a fresh syringe (D) through a blunt 18 G stainless steel needle with the Lipid master mix. The volume should be approximately 35% of total formulation volume+25 μl (dead-volume). Again, Make sure to remove all bubbles. • 20. Attach the syringes in the correct orientation, syringe A on the left and syringe B on the right • 21. Load the ‘Receiving station’ with appropriate sized collection containers (2 ml Eppendorf tubes). • 22. Press the microfluidic chip to the back of the machine with your thumb and hold, press the ‘Button 1’ (40 g). […]

Row | Compound | Transfection* (Method A = 100 ng mRNA) (HeLa cells) | Zeta potential (mV) [1] [mV] | PDI [1] | Size (nm) [1] [nm]
1 | CC/C=C\C/C=C\C/C=C\C/C=C\C/C=C\CCCCN(CCCCO)CCCCCC(OCCCCCCCC)O[Si](C)(C)OCC(CCCCCC)CCCCCCCC (centres unmarked) [Example 202, 16-hexyl-5-((5Z,8Z,11Z,14Z,17Z)-icosa-5,8,11,14,17-pentaen-1-yl)-13,13-dimethyl-11-(octyloxy)-12,14-dioxa-5-aza-13-silatetracosan-1-ol] | 37442 | −10.0 | 0.072 | 154.8
2 | CCCCCCCC[Si](C)(C)OC(CCCCCCC)OCCCCCCN(CCCCO)CCCCCCOC(CCCCCCC)O[Si](C)(C)CCCCCCCC (centres unmarked) [Example 102, 5-(6-((1-((dimethyl(octyl)silyl)oxy)octyl)oxy)hexyl)-13-heptyl-15,15-dimethyl-12,14-dioxa-5-aza-15-silatricosan-1-ol] | 129513 | −3.4 | 0.06 | 212.9
3 | CC/C=C\C/C=C\C/C=C\C/C=C\C/C=C\CCCCN(CCCCO)CCCCCC(OCCCCCCCC)O[Si](C)(C)CCCCCCCC (centres unmarked) [Example 194, 4-((6-((dimethyl(octyl)silyl)oxy)-6-(octyloxy)hexyl)((5Z,8Z,11Z,14Z,17Z)-icosa-5,8,11,14,17-pentaen-1-yl)amino)butan-1-ol] | 152542 | −16.45 | 0.085 | 153.5
4 | CC/C=C\C/C=C\C/C=C\C/C=C\C/C=C\CCCCN(CCCCO)CCCCCCOC(CCCCCCC)O[Si](C)(C)CCCCCCCC (centres unmarked) [Example 195, 13-heptyl-5-((5Z,8Z,11Z,14Z,17Z)-icosa-5,8,11,14,17-pentaen-1-yl)-15,15-dimethyl-12,14-dioxa-5-aza-15-silatricosan-1-ol] | 180769 | −5.8 | 0.04 | 155.2
5 | CCCCCCCCC(CCCCCC)CO[Si](C)(C)OC(CCCCCCC)OCCCCCCN(CCCCO)CCCCCCOC(=O)C(CCCCCC)CCCCCCCC (centres unmarked) [Example 137, 15-heptyl-20-hexyl-7-(4-hydroxybutyl)-17,17-dimethyl-14,16,18-trioxa-7-aza-17-silaoctacosyl 2-hexyldecanoate] | 1713925 | −16.61 | 0.096 | 169.2
6 | CC/C=C\C/C=C\C/C=C\C/C=C\C/C=C\CCCCN(CCCCO)CCCCCC(OCCCCCCCC)O[Si](C)(C)O[Si](C)(C)OCCCCCCCC (centres unmarked) [Example 200, 4-(((5Z,8Z,11Z,14Z,17Z)-icosa-5,8,11,14,17-pentaen-1-yl)(6-(octyloxy)-6-((1,1,3,3-tetramethyl-3-(octyloxy)disiloxaneyl)oxy)hexyl)amino)butan-1-ol] | 225921 | −13.03 | 0.089 | 155.1
7 | CCCCCCCCOC(CCCCCCC)O[Si](C)(C)OCCCCCN(CCCCO)CCCCCCOC(=O)C(CCCCCC)CCCCCCCC (centres unmarked) [Example 146, 16-heptyl-7-(4-hydroxybutyl)-14,14-dimethyl-13,15,17-trioxa-7-aza-14-silapentacosyl 2-hexyldecanoate] | 5015757 | −11.0 | 0.07 | 116.7
8 | CCCCCCCCCCSC(CCCC)C(=O)OCCCCCCN(CCCCO)CCCCCC(OCCCCCCCC)O[Si](C)(C)OCC(CCCCCC)CCCCCCCC (centres unmarked) [Example 174, 18-hexyl-7-(4-hydroxybutyl)-15,15-dimethyl-13-(octyloxy)-14,16-dioxa-7-aza-15-silahexacosyl 2-(decylthio)hexanoate] | 2292920 | −15.5 | 0.159 | 222.6
9 | CC/C=C\C/C=C\C/C=C\C/C=C\C/C=C\CCCCN(CCCCO)CCCCCCOC(CCCCCCC)O[Si](C)(C)OCCCCCCCC (centres unmarked) [Example 197, 13-heptyl-5-((5Z,8Z,11Z,14Z,17Z)-icosa-5,8,11,14,17-pentaen-1-yl)-15,15-dimethyl-12,14,16-trioxa-5-aza-15-silatetracosan-1-ol] | 497865 | −12.3 | 0.135 | 170
10 | CCCCCCCCOC(CCCCCN(CCO)CCCCCCCC(=O)OC(CCCCCCCC)CCCCCCCC)O[Si](C)(C)O[Si](C)(C)CCCCCCCC (centres unmarked) [Example 191, heptadecan-9-yl 8-((2-hydroxyethyl)(6-(octyloxy)-6-((1,1,3,3-tetramethyl-3-octyldisiloxaneyl)oxy)hexyl)amino)octanoate] | 34867 | −10.35 | 0.05 | 159.4
11 | CCCCCCCCOC(CCCCCN(CCCCO)CCC[C@@H](C)C1CCC2C3CCC4C[C@H](OC)CC[C@]4(C)C3CC[C@@]21C)O[Si](C)(C)O[Si](C)(C)OCCCCCCCC (stereo partly drawn) [Example 220, 4-(((4R)-4-((3R,10S,13R)-3-methoxy-10,13-dimethylhexadecahydro-1H-cyclopenta[a]phenanthren-17-yl)pentyl)(6-(octyloxy)-6-((1,1,3,3-tetramethyl-3-(octyloxy)disiloxaneyl)oxy)hexyl)amino)butan-1-ol] | 367060 | −14.55 | 0.002 | 138.4
